Where a SMILES comes first, the peptide text is derived from it. The star is where a group is joined. Cbz = O=C(OCc1ccccc1)*; CH2F = FC*
What was measured:
Type in all cases: cell-based, human
[1] = test system: THP-1, Molm13, MV4 AML cells; test: AML cell death / growth in plates coated with anti-LILRB3 (PI staining); conditions: QNZ 10 μM
Method: Cell culture. THP-1, MV4-11, Molm13, U937, C1498 and 293T cells were purchased from ATCC. AML cell lines were cultured in RPMI-1640 with 10% FBS. Human anti-LILRB3 with the N297A mutation was coated onto the plate to activate LILRB3 signaling, and plates coated with human IgG (N297A) were used as controls. Cells infected with virus were cultured for at least an additional 3 weeks before analysis of LILRB3 signaling. Dead cells were identified using PI staining. Primary human T cells were isolated by autoMACS from donor PBMCs, stimulated with anti-CD3 and anti-CD28, and cultured in RPMI-1640 in the presence of IL-2. For the cytotoxic T lymphocyte assay, human AML cells were stained with CFSE and mixed at different ratios with activated T cells. After 10 hours, the percentage of PI-positive CFSE-stained AML cells was determined by FACS.

[2] = test system: NF-κB signaling; test: NF-κB reporter assay in THP-1-Lucia NF-κB cells; conditions: for NF-κB reporter activity activated by LILRB3: THP-1-Lucia cells activated with anti-LILRB3 antibody
Method: (§1) NF-κB reporter assay and LILRB3 chimeric receptor reporter assay. THP-1-Lucia™ NF-κB cells were purchased from InvivoGen. Human anti-LILRB3 antibody with the N297A mutation was coated onto the plate to activate LILRB3 signaling, and plates coated with hIgG (N297A) were used as the control. The activation of NF-κB signaling was evaluated by monitoring luciferase signal. Infected THP-1 reporter cells were cultured for an additional month before stimulation with anti-LILRB3. For the NF-κB reporter assay conducted in 293T cells, an NF-κB-driven firefly luciferase reporter plasmid co-transfected with a plasmid encoding CMV-driven Renilla luciferase along with plasmids expressing LILRB3, TRAF2, or cFLIP were transfected into cells. The luciferase activity was detected using the Dual-Luciferase® Reporter (DLR™) Assay System (Promega). LILRB3 chimeric receptor reporter cells were constructed as the inventors described (Deng et al., 2014; 2018; Kang et al., 2015), with LILRB3-ECD fused with the transmembrane and intracellular domains of paired immunoglobulin-like receptor β, which signals through the adaptor DAP-12 to activate the NFAT promoter.

[3] = test system: NF-κB signaling; test: NF-κB reporter assay in 293T cells
Method: as §1

| Compound | effect of LILRB3 on survival of THP-1 cells [1] | NF-κB reporter activity activated by LILRB3 [2] | ability of LILRB3 to stimulate NF-κB through TRAF2 ([3]; 293T cells co-transfected with TRAF2 or LILRB3) | LILRB3-induced NF-κB activity in 293T cells ([3]; tet-on cFLIP, 0.2 ug/ml of dox) | LILRB3-induced NF-κB at low concentration of LPS ([2]; THP-1 cells) |
| --- | --- | --- | --- | --- | --- |
| Nc1ccc2ncnc(NCCc3ccc(Oc4ccccc4)cc3)c2c1 [QNZ] | partially abolished the effect of LILRB3 on survival of THP-1 cells | – | – | – | – |
| CC[C@H](C)[C@H](NC(=O)OCc1ccccc1)C(=O)N[C@@H](CCC(=O)OC)C(=O)N[C@H](C(=O)N[C@@H](CC(=O)OC)C(=O)CF)[C@@H](C)O [z-IETD-FMK] (Cbz-IE(OMe)TD(OMe)-CH2F) | – | inhibited the NF-κB reporter activity | – | – | – |
| COC(=O)C[C@H](NC(=O)[C@H](C)NC(=O)[C@@H](NC(=O)OCc1ccccc1)C(C)C)C(=O)CF [z-VAD-FMK] (Cbz-Val-Ala-Asp(OMe)-CH2F) | – | inhibited the NF-κB reporter activity | blocked the ability of LILRB3 to stimulate NF-κB through TRAF2 | blocked LILRB3-induced NF-κB activity | blocked LILRB3-induced NF-κB |

From patent publication US20240101667A1, “METHODS FOR IDENTIFYING LILRB-BLOCKING ANTIBODIES” (THE BOARD OF REGENTS OF THE UNIVERSITY OF TEXAS SYSTEM, priority 2020, published 2024)
